Test results as given in US12365925B2, “Method and system for treatment of microorganisms during propagation, conditioning, fermentation, and preservation using ethyl lauroyl arginate and selected additives” (KEMIN INDUSTRIES, INC., priority 2015, dated 2025).

Tests used:
fermentation = fermentation mixture; cited from earlier work
Weisella confusa = conditions: fermentation mixture; cited from earlier work
[1] = system: Culture Dry Yeast (CDY) corn-mash fermentations; assay: HPLC of corn-mash fermentations challenged with bacterial contamination and LAE treatments; format: cell-based; conditions: CDY + treatment + Bacteria; average
Excerpt: In support of validating LAE, High Performance Liquid Chromatography (HPLC) was used in a first phase of testing to evaluate the effects of LAE applications at various concentrations in order to determine the minimal inhibitory concentrations (MIC) of the LAE antimicrobial on a panel of industry-relevant bacteria. Refer to Tables 1 and 2 below, as well as FIGS. 2A-2D. FIG. 2A provides a visual depiction of test data relating to ethanol output from corn-mash fermentations treated with varying concentrations of LAE, with the results being the averages of triplicate samples (within one standard deviation). FIG. 2B provides a visual depiction of test data relating to ethanol output from corn-mash fermentations challenged with bacterial contamination and treated with 35 ppm LAE or 5 ppm Lactocide V (Virginamycin) (at the same time as the introduction of the bacteria), with the results being the averages of triplicate samples (within one standard deviation). FIG. 2C provides a visual depiction of test data relating to ethanol output from corn-mash fermentations challenged with bacterial contamination and treated with 50 ppm LAE or 5 ppm Lactocide V (Virginamycin) (at the same time as the introduction of the bacteria), with the results being the averages of triplicate samples (within one standard deviation). FIG. 2D provides a visual depiction of test data relating to colony-forming units (CFUs) of commercial yeast preparation with bacterial-contamination growth under batch-propagation conditions (molasses) with the addition of 0 ppm, 25 ppm, or 50 ppm LAE. One of the primary goals with the first phase of the LAE studies was to determine whether the addition of LAE would adversely affect ethanol production, and it was determined that LAE not only was not harmful to ethanol-production processes, but that unwanted microbe growth was inhibited using LAE enough to allow foregoing the use of antibiotics. Part of this analysis was to determine whether the introduction of LAE into the ethanol-production process would adversely impact the stillage byproducts used in animal feed, and for that matter whether the further use of LAE as a preservative in such byproducts would be safe for consumption by agricultural livestock. […] The testing serving as a basis for this conclusion assumed a maximum residual concentration of the LAE of 173 ppm in the distiller's grains. The safety of distiller's grains with LAE concentrations above 173 ppm was not fully evaluated.

## Virginiamycin [Lactocide]
fermentation
  concentration that will suppress fermentation: over 6 mg/L
Weisella confusa
  concentration required to inhibit growth: over 25 mg/L
[1]
  Acetic Acid: 0.14 % wt/vol
  DP3: 0.15 % wt/vol
  DP4: 0.78 % wt/vol
  Ethanol: 13.36 % wt/vol
  Glucose: 0.12 % wt/vol
  Glycerol: 1.59 % wt/vol
  Lactic Acid: 0.27 % wt/vol
  Maltose: 0.48 % wt/vol
